# Assay results as given in the OligoGym collection.
# After the bases stand the sugars from the 5' end (letter, count) and the backbone: PS all phosphorothioate, else s phosphorothioate and o phosphodiester by linkage. Methylation of C is not given here. l = locked nucleic acid (LNA); d = 2'-deoxy (DNA)
# Biological target: SNHG14
# Conditions: ASO, Human Neuronal Cell
Sequence,target mRNA inhibition (7.5 µM) [%],target mRNA inhibition (0.2 µM) [%],target mRNA inhibition (1 µM) [%],target mRNA inhibition (5 µM) [%]
"ATCTTTCCATTTATTTCCA (sugars l1 d1 l1 d14 l2, PS)",41,,,
"ATCTTTCCATTTATTTCCA (sugars lddddldddddddddldll, PS)",31,,,
"ATCTTTGACATTCCATC (sugars l2 d11 l4, PS)",,54,61,
"ATGAAACTATTACTCC (sugars l2 d10 l4, PS)",,18,35,
"ATTCAAAGCACACCACC (sugars l2 d12 l3, PS)",,25,32,
"ATTCAGTTACCAACTA (sugars l3 d10 l3, PS)",,39,38,
"ATTCTCAATTGCACTT (sugars l4 d10 l2, PS)",,49,58,
"ATTGATTCAATTCCCTT (sugars l2 d11 l4, PS)",,62,69,
"ATTGATTCAATTCCCTT (sugars ldddldddddddldlll, PS)",62,,,
"ATTGATTCAATTCCCTT (sugars ldlddddddddllldll, PS)",47,,,
"ATTGATTCAATTCCCTT (sugars ldllddddddddlddll, PS)",74,,,
"ATTTACACTTAATTATACTT (sugars ldddldldddddddllllll, PS)",46,,,
"ATTTACACTTAATTATACTT (sugars llddlldddddddlllddll, PS)",36,,,
"ATTTACACTTAATTATACTT (sugars llldlddddddddlldllll, PS)",27,,,
"ATTTACACTTAATTATACTT (sugars llllddlddddddldddlll, PS)",21,,,
"ATTTATTTCCATTTATTTTC (sugars ldddlldddddddldddlll, PS)",64,,,
"ATTTATTTCCATTTATTTTC (sugars ldlddlddddddddllldll, PS)",58,,,
"ATTTATTTCCATTTATTTTC (sugars ldllddddddddddlddlll, PS)",60,,,

Sequence,target mRNA inhibition (7.5 µM) [%],target mRNA inhibition (0.2 µM) [%],target mRNA inhibition (1 µM) [%],target mRNA inhibition (5 µM) [%]
"ATTTTTTTCTTACTATCTTC (sugars lldlddddddddddlddlll, PS)",57,,,
"CAAAGATCATTCTCAAC (sugars l2 d1 l1 d7 l6, PS)",26,,,
"CAAAGATCATTCTCAAC (sugars l2 d2 l1 d6 l6, PS)",18,,,
"CAAAGATCATTCTCAAC (sugars l3 d8 l6, PS)",53,,,
"CAAAGATCATTCTCAACA (sugars l2 d1 l1 d9 l5, PS)",69,,,
"CAACATTATTAACCACCTT (sugars l3 d11 l2 d1 l2, PS)",51,,,
"CAACATTATTAACCACCTT (sugars ldldddddddddddldlll, PS)",52,,,
"CAACATTATTAACCACCTT (sugars ldlldddddddddddldll, PS)",58,,,
"CAACATTATTAACCACCTT (sugars lldllddddddddddldll, PS)",53,,,
"CAAGTTTCCTATATTC (sugars l4 d10 l2, PS)",,62,64,
"CACACCTATTATATAAT (sugars l4 d11 l2, PS)",,2,18,
"CACATCTTGTATACAA (sugars l3 d10 l3, PS)",,52,61,
"CACCAGTATTTCTTCTT (sugars l4 d11 l2, PS)",,31,27,
"CACCTGATAACAGACCCT (sugars l3 d12 l3, PS)",,24,16,-10
"CACTAGTACTCTTATT (sugars l4 d10 l2, PS)",,43,38,
"CACTTAGAATATCCCT (sugars l2 d10 l4, PS)",,43,35,
"CAGATAACTCTAAACC (sugars l4 d10 l2, PS)",,22,16,
"CAGCTTTTAACCAGAGTG (sugars l3 d13 l2, PS)",76,,,
